{"source": "ChEMBL document CHEMBL1649554", "about": "“Specific therapeutic schemes of omeprazole affect the orientation of Helicobacter pylori” (Antimicrob Agents Chemother, 2009)", "key": {"Helicobacter pylori [1]": {"tested_on": "Helicobacter pylori", "assay": "(§1) Antibacterial activity against Helicobacter pylori SS1 infected in Mongolian gerbils assessed as bacterial density in mucus in central mucus layer at 0.25 mg, ip administered as two doses in 8 hrs dosing interval measured after 90 mins post last dose (reference value: 90+/-60 bacteria per nl of mucus)", "type": "functional"}, "Helicobacter pylori [2]": {"tested_on": "Helicobacter pylori", "assay": "Antibacterial activity against Helicobacter pylori SS1 infected in Mongolian gerbils assessed as bacterial orientation in 15 to 25 um above the Juxtamucosal layer at 0.25 mg, ip administered as two subsequent doses in 8 hrs dosing interval", "type": "functional, organism-based"}, "Helicobacter pylori [3]": {"tested_on": "Helicobacter pylori", "assay": "as §1, with “ip followed by second dose” for “ip”, “solvent” for “two doses”, “24” for “8”", "type": "functional"}, "Helicobacter pylori [4]": {"tested_on": "Helicobacter pylori", "assay": "(§2) Antibacterial activity against Helicobacter pylori SS1 infected in Mongolian gerbils assessed as bacterial density in mucus in 0 to 15 um above the Juxtamucosal layer at 100 uM, ip administered as single dose through dialysis measured after 90 mins post last dose", "type": "functional"}, "Helicobacter pylori [5]": {"tested_on": "Helicobacter pylori", "assay": "Antibacterial activity against Helicobacter pylori SS1 infected in Mongolian gerbils assessed as bacterial orientation in central layer at 35 ug/ml administered as single dose in 8 hrs dosing interval", "type": "functional, organism-based"}, "Helicobacter pylori [6]": {"tested_on": "Helicobacter pylori", "assay": "Antibacterial activity against Helicobacter pylori SS1 infected in Mongolian gerbils assessed as bacterial disorientation in 0 to 15 um above the Juxtamucosal layer at 20 uM, ip administered as single dose through dialysis measured after 90 mins post last dose", "type": "functional, organism-based"}, "Helicobacter pylori [7]": {"tested_on": "Helicobacter pylori", "assay": "Antibacterial activity against Helicobacter pylori SS1 infected in Mongolian gerbils assessed as bacterial density in mucus in central mucus layer at 100 uM, ip administered as single dose through dialysis measured after 90 mins post last dose", "type": "functional"}, "Helicobacter pylori [8]": {"tested_on": "Helicobacter pylori", "assay": "as §2, with “layer at 20 uM, ip” for “layer at 100 uM, ip”, “last dose (reference value: 4560+/-400 bacteria per nl of mucus)” for “last dose”", "type": "functional"}, "Helicobacter pylori [9]": {"tested_on": "Helicobacter pylori", "assay": "Antibacterial activity against Helicobacter pylori SS1 infected in Mongolian gerbils assessed as bacterial density in mucus in 15 to 25 um above the Juxtamucosal layer at 100 uM, ip administered as single dose through dialysis measured after 90 mins post last dose", "type": "functional"}, "Helicobacter pylori [10]": {"tested_on": "Helicobacter pylori", "assay": "Antibacterial activity against Helicobacter pylori SS1 infected in Mongolian gerbils assessed as bacterial disorientation in central mucus layer at 0.25 mg, ip administered as two doses in 8 hrs dosing interval measured after 90 mins post last dose", "type": "functional, organism-based"}, "Helicobacter pylori [11]": {"tested_on": "Helicobacter pylori", "assay": "as §1, with “15 to 25 um above the Juxtamucosal” for “central mucus”, “2280+/-430” for “90+/-60”", "type": "functional"}, "Helicobacter pylori [12]": {"tested_on": "Helicobacter pylori", "assay": "Antibacterial activity against Helicobacter pylori SS1 infected in Mongolian gerbils assessed as bacterial disorientation in central mucus layer at 20 uM, ip administered as single dose through dialysis measured after 90 mins post last dose", "type": "functional, organism-based"}, "Helicobacter pylori [13]": {"tested_on": "Helicobacter pylori", "assay": "Antibacterial activity against Helicobacter pylori SS1 infected in Mongolian gerbils assessed as bacterial disorientation in 15 to 25 um above the Juxtamucosal layer at 0.25 mg, ip administered as two doses of solvent measured after 90 mins post last dose (reference value: 4560+/-400 bacteria per nl of mucus)", "type": "functional, organism-based"}, "Helicobacter pylori [14]": {"tested_on": "Helicobacter pylori", "assay": "Antibacterial activity against Helicobacter pylori SS1 infected in Mongolian gerbils assessed as bacterial disorientation in 15 to 25 um above the Juxtamucosal layer at 20 uM, ip administered as single dose through dialysis measured after 90 mins post last dose", "type": "functional, organism-based"}, "[15]": {"assay": "Cmax in Mongolian gerbils plasma at 0.5 mg, ip", "type": "ADME, organism-based, Meriones unguiculatus", "design": "dose 0.5 mg, route intraperitoneal", "settings": "gerbil"}, "Helicobacter pylori [16]": {"tested_on": "Helicobacter pylori", "assay": "Antibacterial activity against Helicobacter pylori SS1 infected in Mongolian gerbils assessed as bacterial density in mucus in luminal mucus layer at 100 uM, ip administered as single dose through dialysis measured after 90 mins post last dose", "type": "functional"}, "Helicobacter pylori [17]": {"tested_on": "Helicobacter pylori", "assay": "(§3) Antibacterial activity against Helicobacter pylori SS1 infected in Mongolian gerbils assessed as bacterial density in mucus in 0 to 15 um above the Juxtamucosal layer at 0.25 mg, ip administered as two doses in 8 hrs dosing interval measured after 90 mins post last dose (reference value: 4560+/-400 bacteria per nl of mucus)", "type": "functional"}, "Helicobacter pylori [18]": {"tested_on": "Helicobacter pylori", "assay": "Antibacterial activity against Helicobacter pylori SS1 infected in Mongolian gerbils assessed as bacterial disorientation in 15 to 25 um above the Juxtamucosal layer at 0.25 mg, ip administered as two doses in 8 hrs dosing interval measured after 90 mins post last dose", "type": "functional, organism-based"}, "Helicobacter pylori [19]": {"tested_on": "Helicobacter pylori", "assay": "as §3, with “in 15” for “in 0”, “to 25” for “to 15”, “doses of solvent” for “doses”, “in 24” for “in 8”, “value: 2280+/-430” for “value: 4560+/-400”", "type": "functional"}, "Helicobacter pylori [20]": {"tested_on": "Helicobacter pylori", "assay": "as §1, with “luminal” for “central”, “doses of solvent” for “doses”, “24” for “8”, “60+/-50” for “90+/-60”", "type": "functional"}, "Helicobacter pylori [21]": {"tested_on": "Helicobacter pylori", "assay": "Antibacterial activity against Helicobacter pylori SS1 infected in Mongolian gerbils assessed as bacterial orientation in 15 to 25 um above the Juxtamucosal layer at 35 ug/ml administered as single dose in 8 hrs dosing interval", "type": "functional, organism-based"}, "Helicobacter pylori [22]": {"tested_on": "Helicobacter pylori", "assay": "Antibacterial activity against Helicobacter pylori SS1 infected in Mongolian gerbils assessed as bacterial disorientation in 0 to 15 um above the Juxtamucosal layer at 0.25 mg, ip administered as two doses of solvent measured after 90 mins post last dose (reference value: 4560+/-400 bacteria per nl of mucus)", "type": "functional, organism-based"}, "Helicobacter pylori [23]": {"tested_on": "Helicobacter pylori", "assay": "Antibacterial activity against Helicobacter pylori SS1 infected in Mongolian gerbils assessed as bacterial orientation in 0 to 15 um above the Juxtamucosal layer at 0.25 mg, ip administered as two subsequent doses in 8 hrs dosing interval", "type": "functional, organism-based"}, "Helicobacter pylori [24]": {"tested_on": "Helicobacter pylori", "assay": "as §3, with “24” for “8”", "type": "functional"}, "Helicobacter pylori [25]": {"tested_on": "Helicobacter pylori", "assay": "Antibacterial activity against Helicobacter pylori SS1 infected in Mongolian gerbils assessed as bacterial disorientation in luminal mucus layer at 0.25 mg, ip administered as two doses in 8 hrs dosing interval measured after 90 mins post last dose", "type": "functional, organism-based"}, "Helicobacter pylori [26]": {"tested_on": "Helicobacter pylori", "assay": "Antibacterial activity against Helicobacter pylori SS1 infected in Mongolian gerbils assessed as bacterial disorientation in luminal mucus layer at 0.25 mg, ip administered as two doses of solvent measured after 90 mins post last dose (reference value: 4560+/-400 bacteria per nl of mucus)", "type": "functional, organism-based"}, "Helicobacter pylori [27]": {"tested_on": "Helicobacter pylori", "assay": "Antibacterial activity against Helicobacter pylori SS1 infected in Mongolian gerbils assessed as bacterial orientation in 0 to 15 um above the Juxtamucosal layer at 35 ug/ml administered as single dose in 8 hrs dosing interval", "type": "functional, organism-based"}, "Helicobacter pylori [28]": {"tested_on": "Helicobacter pylori", "assay": "as §1, with “doses of solvent” for “doses”, “24” for “8”", "type": "functional"}}, "note": "Active and inactive are the calls of the source. No cut-off for these calls is given here.", "data": [{"smiles": "COc1ccc2[nH]c([S+]([O-])Cc3ncc(C)c(OC)c3C)nc2c1", "note": "(stereo not drawn) [OMEPRAZOLE]", "values": [{"measurement": "Activity", "setting": "Helicobacter pylori [1]", "value": 30, "unit": "nL⁻¹"}, {"measurement": "Activity", "setting": "Helicobacter pylori [2]", "value": "inactive"}, {"measurement": "Activity", "setting": "Helicobacter pylori [3]", "value": 140, "unit": "nL⁻¹"}, {"measurement": "Activity", "setting": "Helicobacter pylori [4]", "value": 570, "unit": "nL⁻¹"}, {"measurement": "Activity", "setting": "Helicobacter pylori [5]", "value": "inactive"}, {"measurement": "Activity", "setting": "Helicobacter pylori [6]", "value": "Active"}, {"measurement": "Activity", "setting": "Helicobacter pylori [7]", "value": 60, "unit": "nL⁻¹"}, {"measurement": "Activity", "setting": "Helicobacter pylori [8]", "value": 5050, "unit": "nL⁻¹"}, {"measurement": "Activity", "setting": "Helicobacter pylori [9]", "value": 330, "unit": "nL⁻¹"}, {"measurement": "Activity", "setting": "Helicobacter pylori [10]", "value": "inactive"}, {"measurement": "Activity", "setting": "Helicobacter pylori [11]", "value": 1800, "unit": "nL⁻¹"}, {"measurement": "Activity", "setting": "Helicobacter pylori [12]", "value": "inactive"}, {"measurement": "Activity", "setting": "Helicobacter pylori [13]", "value": "inactive"}, {"measurement": "Activity", "setting": "Helicobacter pylori [14]", "value": "inactive"}, {"measurement": "Cmax", "setting": "[15]", "value": 20, "unit": "µM"}, {"measurement": "Activity", "setting": "Helicobacter pylori [16]", "value": 60, "unit": "nL⁻¹"}, {"measurement": "Activity", "setting": "Helicobacter pylori [17]", "value": 4170, "unit": "nL⁻¹"}, {"measurement": "Activity", "setting": "Helicobacter pylori [18]", "value": "inactive"}, {"measurement": "Activity", "setting": "Helicobacter pylori [19]", "value": 2260, "unit": "nL⁻¹"}, {"measurement": "Activity", "setting": "Helicobacter pylori [20]", "value": 70, "unit": "nL⁻¹"}, {"measurement": "Activity", "setting": "Helicobacter pylori [21]", "value": "inactive"}, {"measurement": "Activity", "setting": "Helicobacter pylori [22]", "value": "Active"}, {"measurement": "Activity", "setting": "Helicobacter pylori [23]", "value": "inactive"}, {"measurement": "Activity", "setting": "Helicobacter pylori [24]", "value": 3310, "unit": "nL⁻¹"}, {"measurement": "Activity", "setting": "Helicobacter pylori [25]", "value": "inactive"}, {"measurement": "Activity", "setting": "Helicobacter pylori [26]", "value": "inactive"}, {"measurement": "Activity", "setting": "Helicobacter pylori [27]", "value": "inactive"}, {"measurement": "Activity", "setting": "Helicobacter pylori [28]", "value": 40, "unit": "nL⁻¹"}]}]}
